Data on 12 molecules can be found in patent US9200319B2, “Nucleotides and nucleosides and methods for their use in DNA sequencing” (Lasergen, Inc., priority 2008, dated 2015).

Several values for one entry are separate records, joined by “and”; a condition that tells them apart may be missing. Equal entries are not always repeated.

Assay [1] addresses T1, THERMINATOR™ DNA polymerase (Thermococcus sp., UniProt Q56366, A485L/D141A/E143A).
T1 construct: purchased New England Biolabs
In words: biochemical. The arrangement: species or system Thermococcus species 9° N-7. The protocol:
(§1) Natural and modified nucleotides were tested for incorporation efficiency using the “polymerase end point assay” (Wu et al., 2007, which is incorporated herein by reference). This assay examines incorporation efficiency on matched and mismatched template bases. Incorporation efficiency is measured by determining the concentration at which the compound incorporates on half the primer-template complexes (IC50). Titrations of increasing compound concentration were performed to generate curves from which the IC50 can be determined.
(§2) The sequence of the template DNA is selected depending on which compound will be tested. For example, the first interrogation base after the primer in the template sequence is the complement base of the compound when measuring incorporation efficiency, and one of three mismatched bases when measuring mismatch discrimination properties.
(§3) To the annealed reaction, a DNA polymerase (e.g., THERMINATOR™ DNA polymerase, 0.25 units per reaction, New England Biolabs), 1× Thermopol Buffer, and a known concentration of either natural or modified nucleotide are added to each 10 μL reaction and incubated at 75° C. for 10 minutes, cooled on ice, and quenched with 10 μL of stop solution (98% formamide: 10 mM Na2EDTA, pH=8.0, 25 mg/ml Blue Dextran). Stopped reactions are heated to 75° C. for 30 seconds to denature the DNA, and then placed on ice. The extension products are analyzed on a 10% Long Ranger (Lonza) polyacrylamide gel using an ABI model 377 DNA sequencer. Additional details are provided in Example 1, below.
Polymerase Assays. Natural and modified nucleotides were tested for incorporation efficiency using the “polymerase end point assay” (Wu et al., 2007, which is incorporated herein by reference). This assay examines incorporation efficiency on matched and mismatched template bases. Incorporation efficiency is measured by determining the concentration at which the compound incorporates on half the primer-template complexes (IC50). Titrations of increasing compound concentration were performed to generate curves from which the IC50 can be determined.
The assay is performed by first annealing 5 nM of BODIPY-FL labeled primer with 40 nM template DNA in 1× Thermopol Buffer (20 mM Tris-HCl, pH 8.8; 10 mM (NH4)2SO4; 10 mM KCl; 2 mM MgSO4; 0.1% Triton X-100, New England BioLabs).
(§4) The temperature cycle to complete primer annealing is 80° C. for 30 seconds, 57° C. for 30 seconds, then cooling to 4° C. The sequence of the template DNA is selected depending on which compound will be tested. For example, the first interrogation base after the primer in the template sequence is the complement base of the compound when measuring incorporation efficiency, and one of three mismatched bases when measuring mismatch discrimination properties.
as §3, with “sequencer.” for “sequencer. Additional details are provided in Example 1, below.”

The target of assay [2] is T1, THERMINATOR™ DNA polymerase. In words: polymerase end point assay, mismatch discrimination (mismatched template bases). The format is biochemical, Thermococcus species 9° N-7. Here is the method:
as §1, §2
The mismatch/match ratios represent the ability of the polymerase to distinguish between correctly incorporating against a matched template base and a mismatch one. Discrimination is considered sufficient when the mismatch/match ratio is greater than or equal to 100 (two orders of magnitude). […] Both natural dGTP and C^7-(2-nitrobenzyloxy)methyl-2′-dGTP (5p107) show mismatch/match ratios ranging from 10 to 360, and 10 to 250, respectively, two of which are below the 100-fold threshold. […] A similar trend is observed for the C^7-hydroxymethyl-dATP analogs. For the compounds shown in Table 1, substitution at the α-carbon of the 2-nitrobenzyl group increases mismatch discrimination in a stereo-specific manner.
as §4
as §3, with “sequencer.” for “sequencer. Additional details are provided in Example 1, below.”

A short description of assay [3]: UV-cleavage of incorporated nucleotide analogs with 365 nm light. The conditions noted are these: 365 nm UV light, 50 mM NaN3; time at which half the incorporated analog is cleaved. The protocol: Cleavage of the terminating substituted 2-nitrobenzyl group when analogs are incorporated into the primer strand with 365 nm UV light allows for the next cycle of incorporation to resume. Without being bound by theory, at least two factors were found typically influence UV-cleavage rates of incorporated nucleotide analogs: a) stereo-chemistry of the α-carbon substitution of the 2-nitrobenzyl group, and b) substitution on the benzyl ring. Incorporation on a matched template is performed as described above using 1 μM concentration to extend the primer strand. Ten identical tubes are used for each incorporation experiment, after which NaN3 is added to a final concentration of 50 mM. Extended primer reactions are exposed to 365 nm light for various time points using the UV deprotector device described by Wu et al. (2007, which is incorporated herein by reference) and analyzed using an AB model 377 DNA sequencer. The quantitative data are plotted linearly as product formation versus exposure time, and the time point at which half the nucleotide analog is cleaved is calculated, as a DT50 value. […] For example, based on these examples, the ds2 analogs show faster cleavage rates (e.g., lower DT50 values) compared with ds1 analogs. Furthermore, substitution of a methoxy group at the 4 position on the benzyl ring further increases the rate of UV-cleavage, albeit for ds2 analogs only (e.g., the DT50 value for 5p098-ds2 is […] versus that of 1.9 sec for 6p087-ds2). Based on the examples summarized in Table 3, substitution at the α-carbon of the 2-nitrobenzyl ring increases UV-cleavage in a stereospecific manner.

The target in assay [4] is T1, THERMINATOR™ DNA polymerase. As to the kind of experiment: termination assay, weighted sum analysis on homopolymer repeat template. The conditions noted are these: 1.0 = complete termination after a single incorporation. The format is biochemical, Thermococcus species 9° N-7. The protocol: A weighted sum of 1.0 represents complete termination after a single incorporation, while a value greater than 1.0 indicates incorporation beyond the +1 position (e.g. nucleotide read through). […] The assay is performed as described above for the polymerase end-point assay, except that the template used is a homopolymer repeat, thereby allowing for multiple incorporations of a given nucleotide compound.

Setting [5] is: IC50 for incorporation, concentration at which the compound incorporates on half the primer-template complexes, complement template base.
[6] abbreviates: Adj IC50 Conc (nM), adjusted IC50 used to set the concentrations of the termination assay.

T1 sequence (Q56366 whole entry D141A/E143A/A485L): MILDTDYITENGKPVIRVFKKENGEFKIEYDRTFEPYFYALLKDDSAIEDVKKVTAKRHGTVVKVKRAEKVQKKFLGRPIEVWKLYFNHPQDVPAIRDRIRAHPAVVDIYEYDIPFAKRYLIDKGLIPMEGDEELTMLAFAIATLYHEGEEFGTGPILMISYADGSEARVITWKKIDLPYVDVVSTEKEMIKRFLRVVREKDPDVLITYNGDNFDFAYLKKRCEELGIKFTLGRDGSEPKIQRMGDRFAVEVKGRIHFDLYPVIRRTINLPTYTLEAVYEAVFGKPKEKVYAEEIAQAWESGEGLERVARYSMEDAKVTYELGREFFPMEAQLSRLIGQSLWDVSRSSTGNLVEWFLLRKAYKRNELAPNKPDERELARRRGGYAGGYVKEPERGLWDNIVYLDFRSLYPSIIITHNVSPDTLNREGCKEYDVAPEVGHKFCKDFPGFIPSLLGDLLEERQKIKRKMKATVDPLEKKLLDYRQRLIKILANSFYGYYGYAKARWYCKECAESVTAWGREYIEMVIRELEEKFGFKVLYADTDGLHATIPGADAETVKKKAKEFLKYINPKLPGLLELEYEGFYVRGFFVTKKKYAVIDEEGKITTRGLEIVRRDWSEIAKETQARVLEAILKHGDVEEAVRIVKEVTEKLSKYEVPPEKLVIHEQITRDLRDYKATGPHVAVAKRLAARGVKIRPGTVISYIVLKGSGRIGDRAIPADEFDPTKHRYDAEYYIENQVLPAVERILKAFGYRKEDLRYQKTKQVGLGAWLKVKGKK

As for `CC(C)C(OCc1cn([C@H]2C[C@H](O)[C@@H](COP(=O)(O)OP(=O)(O)OP(=O)(O)O)O2)c2nc(N)[nH]c(=O)c12)c1ccccc1[N+](=O)[O-]` (single isomer, unassigned) [5p143-ds1, 7-[1-(2-nitrophenyl)-2-methyl-propyloxy]methyl-7-deaza-2′-deoxyguanosine-5′-triphosphate], in assay [1] (setting [5]), half-maximal inhibition (IC50) required 1.2 ± 0.2 nM. Besides, the “Mismatch/match ratio (10^2)” value was >830 10^2 in assay [2] (template base "A"), >21 10^2 in assay [2] (template base "G") and 5 10^2 in assay [2] (template base "T").
In the case of `COc1ccc(C(OCc2cn([C@H]3C[C@H](O)[C@@H](COP(=O)(O)OP(=O)(O)OP(=O)(O)O)O3)c3ncnc(N)c23)C(C)C)c([N+](=O)[O-])c1` (single isomer, unassigned) [6p087-ds2, 7-[1-(4-methoxy-2-nitrophenyl)-2-methyl-propyloxy]methyl-7-deaza-2′-deoxyadenosine-5′-triphosphate], the midpoint of inhibition in assay [1] (setting [5]), the IC50, lay at 18 ± 3 nM. Moreover, the “DT50” value in assay [3] was 1.9 s and 1.9 ± 0.1 s.
Consider `CC(C)C(OCc1cn([C@H]2C[C@H](O)[C@@H](COP(=O)(O)OP(=O)(O)OP(=O)(O)O)O2)c2ncnc(N)c12)c1ccccc1[N+](=O)[O-]` (single isomer, unassigned) [5p098-ds1, 7-[1-(2-nitrophenyl)-2-methyl-propyloxy]methyl-7-deaza-2′-deoxyadenosine-5′-triphosphate], for which 6.7 ± 0.8 nM corresponded to half-maximal inhibition in assay [1] (setting [5]) (IC50). Further, the “DT50” value in assay [3] was 7.5 ± 0.8 s.
Consider `COc1ccc(C(OCc2cn([C@H]3C[C@H](O)[C@@H](COP(=O)(O)OP(=O)(O)OP(=O)(O)O)O3)c3ncnc(N)c23)C(C)C)c([N+](=O)[O-])c1` (single isomer, unassigned) [6p087-ds1, 7-[1-(4-methoxy-2-nitrophenyl)-2-methyl-propyloxy]methyl-7-deaza-2′-deoxyadenosine-5′-triphosphate], for which inhibition in assay [1] (setting [5]) was half-maximal at 15 ± 1 nM (IC50). The “DT50” value in assay [3] worked out at 8.8 ± 0.6 s.
On to `Nc1nc2c(c(COCc3ccccc3[N+](=O)[O-])cn2[C@H]2C[C@H](O)[C@@H](COP(=O)(O)OP(=O)(O)OP(=O)(O)O)O2)c(=O)[nH]1` [5p107, 7-(2-nitrobenzyloxy)methyl-7-deaza-2′-deoxyguanosine-5′-triphosphate], for which, in assay [1] (setting [5]), half-maximal inhibition (IC50) was put at 1.5 ± 0.3 nM. The “Mismatch/match ratio (10^2)” value in assay [2] (template base "A") is recorded as 2.5 10^2; in assay [2] (template base "G"), 0.4 10^2; in assay [2] (template base "T") it was 0.1 10^2.
On to `CC(C)C(OCc1cn([C@H]2C[C@H](O)[C@@H](COP(=O)(O)OP(=O)(O)OP(=O)(O)O)O2)c2ncnc(N)c12)c1c([N+](=O)[O-])cccc1[N+](=O)[O-]` (single isomer, unassigned) [6p057-ds2, 7-[1-(2,6-dinitrophenyl)-2-methyl-propyloxy]methyl-7-deaza-2′-deoxyadenosine-5′-triphosphate], for which, in assay [1] (setting [5]), the half-inhibitory concentration (IC50) (usually the concentration at which inhibition is half-maximal) stood at 5.8 ± 1.1 nM. Also, the “DT50” value in assay [3] came out at 4.8 ± 0.5 s.
Regarding `O=c1[nH]c(=O)n([C@H]2C[C@H](O)[C@@H](COP(=O)(O)OP(=O)(O)OP(=O)(O)O)O2)cc1COCc1ccccc1-c1ccccc1` [6p010, 5-(2-phenylbenzyloxy)methyl-2′-deoxyuridine-5′-triphosphate], the half-inhibitory concentration (IC50) in assay [1] (setting [6]) and in assay [1] (setting [5]) was 1.4 nM each time. Moreover, the “Average Weighted Sum ± SD” value in assay [4] (1x IC50) was 0.46 ± 0.1; in assay [4] (5x IC50), 1.1 ± 0.1; in assay [4] (25x IC50) it was 1.7 and 1.7 ± 0.3.
In assay [1] (setting [5]), `CC(C)C(OCc1cn([C@H]2C[C@H](O)[C@@H](COP(=O)(O)OP(=O)(O)OP(=O)(O)O)O2)c2nc(N)[nH]c(=O)c12)c1ccccc1[N+](=O)[O-]` (single isomer, unassigned) [5p143-ds2, 7-[1-(2-nitrophenyl)-2-methyl-propyloxy]methyl-7-deaza-2′-deoxyguanosine-5′-triphosphate] yielded an IC50 of 1.3 ± 0.3 nM. The “Mismatch/match ratio (10^2)” value in assay [2] (template base "A") is >770 10^2; in assay [2] (template base "G"), >7.7 10^2; in assay [2] (template base "T"), 2.5 10^2.
In turn, `CC(C)C(OCc1cn([C@H]2C[C@H](O)[C@@H](COP(=O)(O)OP(=O)(O)OP(=O)(O)O)O2)c2ncnc(N)c12)c1c([N+](=O)[O-])cccc1[N+](=O)[O-]` (single isomer, unassigned) [6p057-ds1, 7-[1-(2,6-dinitrophenyl)-2-methyl-propyloxy]methyl-7-deaza-2′-deoxyadenosine-5′-triphosphate] returned a half-inhibitory concentration (IC50) in assay [1] (setting [5]) of 5.2 ± 0.2 nM. Besides, the “DT50” value in assay [3] amounted to 7.3 ± 1.2 s.
In assay [1] (setting [5]), `CC(C)C(OCc1cn([C@H]2C[C@H](O)[C@@H](COP(=O)(O)OP(=O)(O)OP(=O)(O)O)O2)c2ncnc(N)c12)c1ccccc1[N+](=O)[O-]` (single isomer, unassigned) [5p098-ds2, 7-[1-(2-nitrophenyl)-2-methyl-propyloxy]methyl-7-deaza-2′-deoxyadenosine-5′-triphosphate] displayed an IC50 of 5.7 ± 1.1 nM. Further, in assay [3], the “DT50” value is 3.3 s and 3.3 ± 0.2 s.
As to `CC(C)C(OCc1cn([C@H]2C[C@H](O)[C@@H](COP(=O)(O)OP(=O)(O)OP(=O)(O)O)O2)c(=O)[nH]c1=O)c1ccccc1` (mixture of isomers) [5p111, 5-(α-isopropyl-benzyloxy)methyl-2′-dUTP], the half-inhibitory concentration (IC50) in assay [1] (setting [6]) and in assay [1] (setting [5]) was 0.8 nM in each case. Besides, the “Average Weighted Sum ± SD” value is 0.44 ± 0.02 in assay [4] (1x IC50); 0.96 ± 0.01 in assay [4] (5x IC50); 1.1 and 1.1 ± 0.03 in assay [4] (25x IC50).
`Nc1nc2c(ncn2[C@H]2C[C@H](O)[C@@H](COP(=O)(O)OP(=O)(O)OP(=O)(O)O)O2)c(=O)[nH]1` [dGTP, reference compound]: the “Mismatch/match ratio (10^2)” value was 3.6 10^2 in assay [2] (template base "A"), 0.2 10^2 in assay [2] (template base "G") and 0.1 10^2 in assay [2] (template base "T").
